Results published in PMC9403976, “Elucidating the path to Plasmodium prolyl-tRNA synthetase inhibitors that overcome halofuginone resistance” (Nature Communications, 2022).
pIC50: −log10 of the molar value. Several values for one entry are separate records, joined by “and”; a condition that tells them apart may be missing. Identical values can stand only once. Like-named read-outs stand apart in the source and are kept apart here.

Legend:
HsProRS = HsProRS (Homo sapiens, UniProt P07814); test: TR-FRET ligand displacement assay with tracer MAT379 (CoraFluor-1-Halo and anti-His6 antibody formats); format: binding; design: made in house; host or cells: E. coli SoluBL-21; settings: for TR-FRET dose-response, normalized signal (SI Fig 11): individual replicates
PfcProRS = target: T1, PfcProRS (Plasmodium falciparum, UniProt Q8I5R7); format: binding; settings: single replicates
T1 construct: made in house; host or cells: E. coli SoluBL-21
T1 sequence (Q8I5R7 249-746): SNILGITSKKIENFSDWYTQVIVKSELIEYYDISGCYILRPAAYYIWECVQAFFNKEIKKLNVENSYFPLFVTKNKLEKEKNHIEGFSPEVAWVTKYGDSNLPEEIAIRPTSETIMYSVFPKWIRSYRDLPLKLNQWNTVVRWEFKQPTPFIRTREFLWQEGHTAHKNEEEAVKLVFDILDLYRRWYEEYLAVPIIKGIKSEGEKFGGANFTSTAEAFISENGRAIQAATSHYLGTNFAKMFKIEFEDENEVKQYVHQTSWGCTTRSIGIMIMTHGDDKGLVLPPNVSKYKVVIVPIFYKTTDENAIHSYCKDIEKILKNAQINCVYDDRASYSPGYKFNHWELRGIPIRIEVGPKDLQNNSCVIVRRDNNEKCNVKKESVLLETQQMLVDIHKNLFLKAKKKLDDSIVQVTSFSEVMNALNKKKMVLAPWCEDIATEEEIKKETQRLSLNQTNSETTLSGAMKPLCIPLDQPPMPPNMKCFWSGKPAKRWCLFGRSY

HsProRS, sequence (P07814 996-1512): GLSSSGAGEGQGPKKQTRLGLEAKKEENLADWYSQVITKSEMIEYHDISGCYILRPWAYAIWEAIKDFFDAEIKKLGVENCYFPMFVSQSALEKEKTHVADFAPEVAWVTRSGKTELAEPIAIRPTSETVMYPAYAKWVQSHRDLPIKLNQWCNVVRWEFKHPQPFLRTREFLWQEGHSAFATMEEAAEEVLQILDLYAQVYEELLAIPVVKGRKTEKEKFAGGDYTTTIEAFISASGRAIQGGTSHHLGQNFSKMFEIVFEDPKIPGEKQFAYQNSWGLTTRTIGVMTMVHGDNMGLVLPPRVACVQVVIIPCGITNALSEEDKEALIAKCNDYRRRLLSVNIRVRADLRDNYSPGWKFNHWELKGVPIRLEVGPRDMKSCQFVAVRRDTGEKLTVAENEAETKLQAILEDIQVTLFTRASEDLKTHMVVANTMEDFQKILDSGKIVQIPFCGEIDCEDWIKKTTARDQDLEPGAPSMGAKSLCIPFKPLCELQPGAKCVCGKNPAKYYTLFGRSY

NCC1CCN(C(=O)Nc2nccnc2C(=O)NC2Cc3ccccc3C2)CC1 [compound 10]
pIC50 (HsProRS): < 5.00
Kd (HsProRS; HsProRS (KD [nM]) + 100 μM proline mean, + 100 μM proline): 1360 nM
normalized TR-FRET ligand displacement signal, dose-response replicates (SI Fig 6) (HsProRS; Log[inhibitor] (M) -5.000): 7.52E-01 and 7.79E-01 and 7.62E-01
TR-FRET dose-response, normalized signal (SI Fig 11) (HsProRS; Log[inhibitor] (M) -5.000): 6.05E-01 and 5.95E-01 and 6.36E-01
normalized TR-FRET ligand displacement signal, dose-response replicates (SI Fig 6) (HsProRS; Log[inhibitor] (M) -5.301): 8.20E-01 and 8.88E-01 and 8.92E-01
TR-FRET dose-response, normalized signal (SI Fig 11) (HsProRS; Log[inhibitor] (M) -5.301): 6.96E-01 and 7.22E-01 and 7.09E-01
normalized TR-FRET ligand displacement signal, dose-response replicates (SI Fig 6) (HsProRS; Log[inhibitor] (M) -5.601): 9.12E-01 (2×) and 9.52E-01
TR-FRET dose-response, normalized signal (SI Fig 11) (HsProRS; Log[inhibitor] (M) -5.601): 8.44E-01 and 7.94E-01 and 8.38E-01
normalized TR-FRET ligand displacement signal, dose-response replicates (SI Fig 6) (HsProRS; Log[inhibitor] (M) -5.904): 1.12E+00 and 9.84E-01 and 8.91E-01
TR-FRET dose-response, normalized signal (SI Fig 11) (HsProRS; Log[inhibitor] (M) -5.904): 8.92E-01 and 8.20E-01 and 8.24E-01
normalized TR-FRET ligand displacement signal, dose-response replicates (SI Fig 6) (HsProRS; Log[inhibitor] (M) -6.208): 9.97E-01 and 8.76E-01 and 9.90E-01
TR-FRET dose-response, normalized signal (SI Fig 11) (HsProRS; Log[inhibitor] (M) -6.208): 8.69E-01 and 8.29E-01 and 9.13E-01
normalized TR-FRET ligand displacement signal, dose-response replicates (SI Fig 6) (HsProRS; Log[inhibitor] (M) -6.509): 9.61E-01 and 1.04E+00 and 9.10E-01
TR-FRET dose-response, normalized signal (SI Fig 11) (HsProRS; Log[inhibitor] (M) -6.509): 9.27E-01 and 8.13E-01 and 9.47E-01
normalized TR-FRET ligand displacement signal, dose-response replicates (SI Fig 6) (HsProRS; Log[inhibitor] (M) -6.796): 1.04E+00 and 1.06E+00 and 1.01E+00
TR-FRET dose-response, normalized signal (SI Fig 11) (HsProRS; Log[inhibitor] (M) -6.796): 9.41E-01 and 8.80E-01 and 8.81E-01
normalized TR-FRET ligand displacement signal, dose-response replicates (SI Fig 6) (HsProRS; Log[inhibitor] (M) -7.108): 1.05E+00 and 9.51E-01 and 1.07E+00
TR-FRET dose-response, normalized signal (SI Fig 11) (HsProRS; Log[inhibitor] (M) -7.108): 8.72E-01 and 9.00E-01 and 8.74E-01
normalized TR-FRET ligand displacement signal, dose-response replicates (SI Fig 6) (HsProRS; Log[inhibitor] (M) -7.409): 8.85E-01 and 9.14E-01 and 8.87E-01
TR-FRET dose-response, normalized signal (SI Fig 11) (HsProRS; Log[inhibitor] (M) -7.409): 8.90E-01 and 8.97E-01 and 8.75E-01
normalized TR-FRET ligand displacement signal, dose-response replicates (SI Fig 6) (HsProRS; Log[inhibitor] (M) -7.710): 9.64E-01 (2×) and 8.88E-01
TR-FRET dose-response, normalized signal (SI Fig 11) (HsProRS; Log[inhibitor] (M) -7.710): 8.83E-01 and 8.58E-01 and 9.38E-01
normalized TR-FRET ligand displacement signal, dose-response replicates (SI Fig 6) (HsProRS; Log[inhibitor] (M) -8.000): 9.97E-01 and 1.02E+00 and 9.70E-01
TR-FRET dose-response, normalized signal (SI Fig 11) (HsProRS; Log[inhibitor] (M) -8.000): 9.01E-01 and 9.27E-01 and 9.34E-01
normalized TR-FRET ligand displacement signal, dose-response replicates (SI Fig 6) (HsProRS; Log[inhibitor] (M) -8.301): 9.79E-01 and 9.25E-01 and 8.62E-01
TR-FRET dose-response, normalized signal (SI Fig 11) (HsProRS; Log[inhibitor] (M) -8.301): 8.32E-01 and 8.76E-01 and 8.86E-01
normalized TR-FRET ligand displacement signal, dose-response replicates (SI Fig 6) (HsProRS; Log[inhibitor] (M) -8.602): 1.04E+00 and 9.88E-01 and 8.85E-01
TR-FRET dose-response, normalized signal (SI Fig 11) (HsProRS; Log[inhibitor] (M) -8.602): 8.91E-01 and 9.03E-01 and 9.02E-01
normalized TR-FRET ligand displacement signal, dose-response replicates (SI Fig 6) (HsProRS; Log[inhibitor] (M) -9.000): 9.73E-01 and 8.88E-01 and 1.05E+00
TR-FRET dose-response, normalized signal (SI Fig 11) (HsProRS; Log[inhibitor] (M) -9.000): 9.24E-01 and 8.78E-01 and 8.94E-01
normalized TR-FRET ligand displacement signal, dose-response replicates (SI Fig 6) (HsProRS; Log[inhibitor] (M) -9.301): 9.62E-01 and 9.69E-01 and 9.04E-01
TR-FRET dose-response, normalized signal (SI Fig 11) (HsProRS; Log[inhibitor] (M) -9.301): 9.15E-01 and 8.48E-01 and 8.61E-01
HsProRS % signal at 10 μM (HsProRS; no added proline/ATP (-), 10 μM): 61.2%
dose-response signal (normalized), SI Fig 8 (PfcProRS; Log[inhibitor] (M) -5.000): 6.00E-01 and 6.56E-01 and 6.73E-01
dose-response signal (normalized), SI Fig 8 (PfcProRS; Log[inhibitor] (M) -5.301): 9.19E-01 and 8.61E-01 and 8.50E-01
dose-response signal (normalized), SI Fig 8 (PfcProRS; Log[inhibitor] (M) -5.601): 9.17E-01 and 9.92E-01 and 9.34E-01
dose-response signal (normalized), SI Fig 8 (PfcProRS; Log[inhibitor] (M) -5.904): 9.34E-01 and 1.02E+00 and 9.14E-01
dose-response signal (normalized), SI Fig 8 (PfcProRS; Log[inhibitor] (M) -6.208): 1.16E+00 and 1.11E+00 and 8.47E-01
dose-response signal (normalized), SI Fig 8 (PfcProRS; Log[inhibitor] (M) -6.509): 1.03E+00 and 1.08E+00 and 9.82E-01
dose-response signal (normalized), SI Fig 8 (PfcProRS; Log[inhibitor] (M) -6.796): 9.55E-01 and 9.28E-01 and 9.85E-01
dose-response signal (normalized), SI Fig 8 (PfcProRS; Log[inhibitor] (M) -7.108): 9.16E-01 and 1.02E+00 and 1.03E+00
dose-response signal (normalized), SI Fig 8 (PfcProRS; Log[inhibitor] (M) -7.409): 1.06E+00 and 1.03E+00 and 1.09E+00
dose-response signal (normalized), SI Fig 8 (PfcProRS; Log[inhibitor] (M) -7.710): 8.76E-01 and 1.01E+00 and 9.98E-01
dose-response signal (normalized), SI Fig 8 (PfcProRS; Log[inhibitor] (M) -8.000): 1.02E+00 and 1.09E+00 and 1.14E+00
dose-response signal (normalized), SI Fig 8 (PfcProRS; Log[inhibitor] (M) -8.301): 1.04E+00 (2×) and 9.07E-01
dose-response signal (normalized), SI Fig 8 (PfcProRS; Log[inhibitor] (M) -8.602): 1.06E+00 and 9.87E-01 and 1.02E+00
dose-response signal (normalized), SI Fig 8 (PfcProRS; Log[inhibitor] (M) -9.000): 9.95E-01 and 1.10E+00 and 1.11E+00
dose-response signal (normalized), SI Fig 8 (PfcProRS; Log[inhibitor] (M) -9.301): 9.71E-01 and 8.41E-01 and 1.04E+00
